The values that follow are results of earlier work, collected in US10973875B2, “Medical agents and uses thereof” (LOKON PHARMA AB, priority 2014, dated 2021).

The conditions of the series: patients treated with gemcitabine.

Turning to `Nc1ccn([C@@H]2O[C@H](CO)[C@@H](O)C2(F)F)c(=O)n1` [gemcitabine], the “levels of TGF, Tregs and MDSCs” value is listed as “significantly lower levels”.
